Source: patent publication US20140018316A1, “OPHTHALMIC PHARMACEUTICAL COMPOSITION” (Hayashibara Co., Ltd., priority 2005, published 2014)

What was measured:
pig lens = experiment: Swelling and cloudiness of extracted pig lenses soaked in test or control solutions (traumatic cataract model); parameters: key to degree of cloudiness in the lens (relative value): relative gray-scale density; uninjured lens in saline at start = 10; settings: for degree of cloudiness in the lens (relative value) / swelling of the lens: 100 mM in physiological saline
Description: Using an injured pig lens employed as a model for traumatic cataract, the influence of cyclic tetrasaccharide on the cloudiness in the lens was experimented as follows: A test solution was previously prepared by dissolving a cyclic tetrasaccharide crystal, penta hydrate, which had been prepared by the method in the later described Reference for Example 2, in physiological saline into a physiological saline containing 100 mM cyclic tetrasaccharide. As a positive control, a physiological saline containing 100 mM α,α-trehalose, a reagent grade specimen, commercialized by Hayashibara Biochemical Laboratories, Inc., Okayama, Japan, was used; andasanegativecontrol, physiological saline was used. Two milliliter aliquots of any one of the above three kinds of aqueous solutions were added to every two wells in respective commercialized 24-well culture plates. In one of the two wells containing the same kind of solution in each plate was placed a pig lens, which had been obtained from a slaughter-house, extracted by incision within three hours after the obtention and without injuring, and washing the extracted lens with physiological saline; while in the other of the two wells was placed a pig lens, which had been prepared by the same procedure as in the above but injured with a 27-gauge injection needle (commercialized by Terumo Co., Tokyo, Japan) to form an injured line, about one millimeter in length. These lens were allowed to stand at ambient temperature and macroscopically and microscopically observed their change in the degree of cloudiness and in the shape of swelling, etc. This experiment was run in a triplicate manner, and the macroscopic and microscopic observations were done just after (0), 1 hour, 2 hours, 6 hours, and 24 hours after the lenses were placed in the wells, and then observed daily over 28 days. A similar experiment was further conducted using a physiological saline containing 75 mM, 50 mM, 20 mM, 10 mM, or 1 mM cyclic tetrasaccharide and a lens that had not been injured with the injection needle. The degree of cloudiness in each lens, observed with “STEREOMICROSCOPE SZX12”, a product name of a stereomicroscope commercialized by Olympus Co., Tokyo, Japan, was expressed by photographing a transmitted light image of each lens with “PENGUIN 150CL”, a digital camera commercialized by Pixela Co., Tokyo, Japan, capturing the transmitted image by a computer using a view finder commercialized by Olympus Co., Tokyo, Japan, and expressing numerically the degree of light and shade of the captured image as a gray-scale using “Scion Image for Windows Beta 4.0.2”, a software commercialized by Scion Co., Maryland, U.S.A., to obtain a mean density for each lens. The time course change in the degree of cloudiness in each lens placed in each solution was expressed with a relative value, regarding the degree of cloudiness, just after the lens free of injury had been placed in physiological saline, as 10. The change of cloudiness and swelling are respectively in Tables 1 and 2. In Table 1, there show only the results from time 0 hour through two days and from days 7, 14 and 28.

[1] = test system: circular corneal fragment extracted from a pig eye ball; experiment: Corneal walleye/cloudiness and edema of pig corneal fragments soaked in test or control solutions; parameters: degree of corneal walleye/cloudiness (relative value): scale not given here; key to corneal edema: ◯: Corneal edema was observed.; —: No corneal edema was observed; settings: for corneal edema / degree of corneal walleye/cloudiness (relative value): 100 mM in physiological saline
Description: Experiment to examine the influence of cyclic tetrasaccharide on corneal walleye/cloudiness was conducted as follows: A physiological saline containing 100 mM cyclic tetrasaccharide was previously prepared for use as a test solution by dissolving a cyclic tetrasaccharide crystal, pentahydrate, which had been prepared by the later described method in Example for Reference 2. As a positive control solution, it was prepared a physiological saline containing 100 mM α,α-trehalose, a reagent grade specimen, commercialized by Hayashibara Biochemical Laboratories, Inc., Okayama, Japan; and as a negative control solution, physiological saline was used. Two milliliters of any one of the above three kinds of aqueous solutions were added to respective two wells in a commercialized 24-well culture plate. To each well in each culture plate a circular corneal fragment, which had been extracted from a pig eye ball obtained from a slaughterhouse by using a trephine for corneal transplantation, was placed and macroscopically and microscopically observed for changing in both the degree of corneal walleye/cloudiness and the change of corneal shape such as corneal edema. The macroscopic and microscopic observations were done just after the corneas were placed in the wells at (0) and at 1, 2, 6, 24, 48 and 72 hours after their placing. The methods of macroscopic and microscopic observations and the analysis of the time course change of corneal walleye/cloudiness were conducted by the same ones as used in Experiment 1. Tables 3 and 4 show the transition of corneal walleye/cloudiness and that of the corneal edema, respectively.

OC[C@H]1O[C@H](O[C@H]2O[C@H](CO)[C@@H](O)[C@H](O)[C@H]2O)[C@H](O)[C@@H](O)[C@@H]1O [Positive control solution, α,α-trehalose, reference compound]
degree of cloudiness in the lens (relative value) (pig lens; injured lens, 1 hour): 10 | degree of cloudiness in the lens (relative value) (pig lens; injured lens, 2 hours): 10 | degree of cloudiness in the lens (relative value) (pig lens; injured lens, 6 hours): 15 | degree of cloudiness in the lens (relative value) (pig lens; injured lens, 24 hours): 46 | degree of cloudiness in the lens (relative value) (pig lens; injured lens, 2 days): 89 | swelling of the lens (pig lens; injured lens, 2 days): ◯ (swelling was observed) | degree of cloudiness in the lens (relative value) (pig lens; injured lens, time 0): 10 | degree of cloudiness in the lens (relative value) (pig lens; no injury, 1 hour): 13 | degree of cloudiness in the lens (relative value) (pig lens; no injury, 2 hours): 13 | degree of cloudiness in the lens (relative value) (pig lens; no injury, 6 hours): 12 | degree of cloudiness in the lens (relative value) (pig lens; no injury, 24 hours): 14 | degree of cloudiness in the lens (relative value) (pig lens; no injury, 2 days): 19 | degree of cloudiness in the lens (relative value) (pig lens; no injury, 7 days): 36 | degree of cloudiness in the lens (relative value) (pig lens; no injury, 14 days): 39 | degree of cloudiness in the lens (relative value) (pig lens; no injury, 28 days): 75 | swelling of the lens (pig lens; no injury, 28 days): ◯ (swelling was observed) | degree of cloudiness in the lens (relative value) (pig lens; no injury, time 0): 10 | swelling of the lens (in words) (pig lens; 100 mM, injured lens, 2 days after initiating observation): observed to have swelling from 2 days | cloudiness in the lens compared with the negative control solution (pig lens; 100 mM, lenses with no injury): inhibited | swelling of the lens (in words) (pig lens; 100 mM, lenses with no injury, on 28 days): swelling of the lenses was macroscopically observed | corneal edema ([1]; 1 hour): — | degree of corneal walleye/cloudiness (relative value) ([1]; 1 hour): 11 | corneal edema ([1]; 2 hours): — | degree of corneal walleye/cloudiness (relative value) ([1]; 2 hours): 11 | corneal edema ([1]; 6 hours): — | degree of corneal walleye/cloudiness (relative value) ([1]; 6 hours): 13 | corneal edema ([1]; 24 hours): ◯ | degree of corneal walleye/cloudiness (relative value) ([1]; 24 hours): 30 | corneal edema ([1]; 48 hours): ◯ | degree of corneal walleye/cloudiness (relative value) ([1]; 48 hours): 60 | corneal edema ([1]; 72 hours): ◯ | degree of corneal walleye/cloudiness (relative value) ([1]; 72 hours): 70 | corneal edema ([1]; time 0): — | degree of corneal walleye/cloudiness (relative value) ([1]; time 0): 10 | corneal edema (in words) ([1]; 100 mM, at 24 hours): macroscopic corneal edema
